This note sets out measurements from US12275733B2, “Substituted pyrido[3,4-b]indoles for the treatment of cartilage disorders” (Sanofi, priority 2016, dated 2025).

For this test, the system named is ATDC5 cells. Nature of the test: Chondrogenesis activity assay in ATDC5 cells (collagen type II induction, immunofluorescence). The class given is cell-based, mouse. As to conditions: Mus musculus; for EC50: collagen type II induction in ATDC5 cells, concentration reaching 50% of maximum induction; for Emax: maximum percent induction of collagen type II relative to internal reference compound at 10 μM, ATDC5 cells. The gist of the method: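 Mouse ATDC5 cells in insulin (10 μg/ml)-containing DMEM/F12 differentiation medium with 5% FCS were exposed to compound, typically 40 nM–10 μM at 0.1% DMSO, for 4 days at 37 °C. Intracellular collagen type II was quantified by Alexa Fluor 488 immunostaining with high-content imaging, relative to DMSO and a 10 μM reference compound.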

Usually EC50 stands for the concentration needed to bring the measured effect to its halfway point. Lower therefore signals a more potent agent. One may read the Emax as the size of the effect at its maximum, as opposed to the concentration needed. `Cc1nccc2c1[nH]c1c(-c3ccc(Cl)nc3Cl)cc(Br)cc12` [Example 98, 6-Bromo-8-(2,6-dichloro-pyridin-3-yl)-1-methyl-9H-pyrido[3,4-b]indole]: it took 2400 nM to reach a half-maximal effect (EC50) and the Emax is above 80%.
Turning to `COc1ncc(-c2cc(Cl)cc3c2[nH]c2c(C)nccc23)cc1F` [Example 99, 6-Chloro-8-(5-fluoro-6-methoxy-pyridin-3-yl)-1-methyl-9H-pyrido[3,4-b]indole], the 50% effective concentration (EC50) was above 10000 nM and the Emax is below 20%.
For `Cc1nccc2c1[nH]c1c(-c3ccc(C#N)nc3)cc(Cl)cc12` [Example 100, 5-(6-Chloro-1-methyl-9H-pyrido[3,4-b]indol-8-yl)-pyridine-2-carbonitrile], the EC50 was 1000 nM and the maximum response (Emax) was below 20%.
With `Cc1nccc2c1[nH]c1c(-c3ccc(N4CCCCC4)nc3)cc(Cl)cc12` [Example 101, 6-Chloro-1-methyl-8-(3,4,5,6-tetrahydro-2H-[1,2′]bipyridinyl-5′-yl)-9H-pyrido[3,4-b]indole], the midpoint of the response, the EC50, lay at 8200 nM and the Emax was in the range of 20 to 50%.
Turning to `Cc1nccc2c1[nH]c1c(-c3ccc(OC(C)C)nc3)cc(Cl)cc12` [Example 102, 6-Chloro-8-(6-isopropoxy-pyridin-3-yl)-1-methyl-9H-pyrido[3,4-b]indole], the EC50 amounted to 2100 nM and the Emax was 20 to 50%.
`COc1ccc(-c2cc(Cl)cc3c2[nH]c2c(C)nccc23)c(Cl)n1` [Example 103, 6-Chloro-8-(2-chloro-6-methoxy-pyridin-3-yl)-1-methyl-9H-pyrido[3,4-b]indole] had an EC50 of 1900 nM and an Emax above 80%.
The molecule `COc1ccc(-c2cc(Cl)cc3c2[nH]c2c(C)nccc23)c(C)n1` [Example 104, 6-Chloro-8-(6-methoxy-2-methyl-pyridin-3-yl)-1-methyl-9H-pyrido[3,4-b]indole] displayed an EC50 of 3500 nM and an Emax above 80%.
Take `CCc1nccc2c1[nH]c1c(-c3ccc(Cl)nc3Cl)cc(Cl)cc12` [Example 105, 6-Chloro-8-(2,6-dichloro-pyridin-3-yl)-1-ethyl-9H-pyrido[3,4-b]indole]: it took 1000 nM to reach a half-maximal effect (EC50) and the Emax is 50 to 80%.
In the case of `CC(C)c1nccc2c1[nH]c1c(-c3ccc(Cl)nc3Cl)cc(Cl)cc12` [Example 106, 6-Chloro-8-(2,6-dichloro-pyridin-3-yl)-1-isopropyl-9H-pyrido[3,4-b]indole], the concentration giving a half-maximal response (EC50) is above 10000 nM and the Emax was 20 to 50%.
As to `Cc1nccc2c1[nH]c1c(-c3ccc(-n4ccccc4=O)nc3)cc(Cl)cc12` [Example 107, 5′-(6-Chloro-1-methyl-9H-pyrido[3,4-b]indol-8-yl)-[1,2′]bipyridinyl-2-one], the half-maximal effective concentration (EC50) worked out at 560 nM and the Emax fell in the range of 20 to 50%.
Consider `Cc1cc(-c2ccc(Cl)nc2Cl)c2[nH]c3c(C)nccc3c2c1` [Example 108, 8-(2,6-Dichloro-pyridin-3-yl)-1,6-dimethyl-9H-pyrido[3,4-b]indole], for which the EC50 was 1400 nM and the Emax is above 80%.
On to `Cc1nccc2c1[nH]c1c(-c3ccc(N4CCNC(=O)C4)nc3)cc(Cl)cc12` [Example 109, 4-[5-(6-Chloro-1-methyl-9H-pyrido[3,4-b]indol-8-yl)-pyridin-2-yl]-piperazin-2-one], for which the EC50 amounted to 720 nM and the Emax lay in the range of 50 to 80%.
On to `Cc1nccc2c1[nH]c1c(-c3ccc(N4CCOC4=O)nc3)cc(Cl)cc12` [Example 110, 3-[5-(6-Chloro-1-methyl-9H-pyrido[3,4-b]indol-8-yl)-pyridin-2-yl]-oxazolidin-2-one], for which the EC50 is above 10000 nM and the Emax lay in the range of 20 to 50%.
Turning to `COCCn1c2cnccc2c2cc(Cl)cc(-c3ccc(Cl)nc3Cl)c21` [Example 111, 6-Chloro-8-(2,6-dichloro-pyridin-3-yl)-9-(2-methoxy-ethyl)-9H-pyrido[3,4-b]indole], the EC50 was 1800 nM and the Emax was 50 to 80%.
The like results for `FC(F)(F)Cn1c2cnccc2c2cc(Cl)cc(-c3cnn(Cc4ccncc4)c3)c21` [Example 112, 6-Chloro-8-(1-pyridin-4-ylmethyl-1H-pyrazol-4-yl)-9-(2,2,2-trifluoro-ethyl)-9H-pyrido[3,4-b]indole] were, in that order, 490 nM and above 80%.
`COc1ccc(-c2cc(Cl)cc3c2[nH]c2c(C)nccc23)c(N)n1` [Example 113, 3-(6-Chloro-1-methyl-9H-pyrido[3,4-b]indol-8-yl)-6-methoxy-pyridin-2-ylamine]: the EC50 was determined as 780 nM and the Emax was above 80%.
`Cn1c(-c2cc(Cl)cc3c4ccncc4n(CC(F)(F)F)c23)cnc1Cl` [Example 114, 6-Chloro-8-(2-chloro-3-methyl-3H-imidazol-4-yl)-9-(2,2,2-trifluoro-ethyl)-9H-pyrido[3,4-b]indole] registered an EC50 of 5700 nM and an Emax of 20 to 50%.
With `Cc1nccc2c1[nH]c1c(-c3cnn(Cc4cccnc4)c3)cc(Cl)cc12` [Example 115, 6-Chloro-1-methyl-8-(1-pyridin-3-ylmethyl-1H-pyrazol-4-yl)-9H-pyrido[3,4-b]indole], the EC50 amounted to 490 nM and the Emax was above 80%.
The molecule `CSc1ccc(-c2cc(Cl)cc3c2[nH]c2c(C)nccc23)cn1` [Example 120, 6-Chloro-1-methyl-8-(6-methylsulfanyl-pyridin-3-yl)-9H-pyrido[3,4-b]indole] displayed an EC50 of 1400 nM and an Emax of 50 to 80%.
`CCn1c2c(-c3cnn(Cc4ccc(C)nc4C)c3)cc(Cl)cc2c2ccnc(C)c21` [Example 121, 6-Chloro-8-[1-(2,6-dimethyl-pyridin-3-ylmethyl)-1H-pyrazol-4-yl]-9-ethyl-1-methyl-9H-pyrido[3,4-b]indole] gave a half-maximal effective concentration (EC50) of 590 nM and an Emax above 80%.
For the molecule `CCn1c2cnccc2c2cc(Cl)cc(-c3ccncc3)c21` [Example 123, 6-Chloro-9-ethyl-8-pyridin-4-yl-9H-pyrido[3,4-b]indole], the EC50 is 260 nM and the Emax lay within 20 to 50%.
The corresponding values for `CCn1c2cnccc2c2cc(Cl)cc(-c3ccco3)c21` [Example 124, 6-Chloro-9-ethyl-8-furan-2-yl-9H-pyrido[3,4-b]indole] are 2600 nM and below 20%.
Molecule `CCn1c2c(-c3ccncc3)cc(Cl)cc2c2ccnc(C)c21` [Example 125, 6-Chloro-9-ethyl-1-methyl-8-pyridin-4-yl-9H-pyrido[3,4-b]indole] gave an EC50 of 1000 nM and an Emax above 80%.
Turning to `FC(F)(F)Cn1c2cnccc2c2cc(Cl)cc(-c3cncnc3)c21` [Example 126, 6-Chloro-8-pyrimidin-5-yl-9-(2,2,2-trifluoro-ethyl)-9H-pyrido[3,4-b]indole], the EC50 is above 10000 nM and the maximal effect (Emax) lay within 20 to 50%.
`FC(F)(F)Cn1c2cnccc2c2cc(Cl)cc(-c3ccncc3)c21` [Example 127, 6-Chloro-8-pyridin-4-yl-9-(2,2,2-trifluoro-ethyl)-9H-pyrido[3,4-b]indole] gave an EC50 of 380 nM and an Emax of 50 to 80%.
On to `FC(F)(F)Cn1c2cnccc2c2cc(Cl)cc(-c3ccccc3)c21` [Example 128, 6-Chloro-8-phenyl-9-(2,2,2-trifluoro-ethyl)-9H-pyrido[3,4-b]indole], for which a half-maximal effect (EC50) was put at 3900 nM and the Emax was below 20%.
As to `FC(F)(F)Cn1c2cnccc2c2cc(Cl)cc(-c3ccc(Cl)cc3)c21` [Example 129, 6-Chloro-8-(4-chloro-phenyl)-9-(2,2,2-trifluoro-ethyl)-9H-pyrido[3,4-b]indole], the EC50 worked out at 860 nM and the Emax is above 80%.
In the case of `Cc1nccc2c1[nH]c1c(-c3ccncc3)cc(Cl)cc12` [Example 130, 6-Chloro-1-methyl-8-pyridin-4-yl-9H-pyrido[3,4-b]indole], the EC50 stood at 380 nM and the Emax is above 80%.
`CCn1c2cnccc2c2cc(Cl)cc(-c3ccc(Cl)cc3)c21` [Example 131, 6-Chloro-8-(4-chloro-phenyl)-9-ethyl-9H-pyrido[3,4-b]indole] registered an EC50 of 780 nM and an Emax above 80%.
`Nc1ncc(-c2cc(Cl)cc3c4ccncc4n(CC(F)(F)F)c23)cn1` [Example 132, 5-[6-Chloro-9-(2,2,2-trifluoro-ethyl)-9H-pyrido[3,4-b]indol-8-yl]-pyrimidin-2-ylamine] yielded an EC50 of 4500 nM and an Emax of 20 to 50%.
The like results for `CCn1c2cnccc2c2cc(Cl)cc(-c3cncnc3)c21` [Example 133, 6-Chloro-9-ethyl-8-pyrimidin-5-yl-9H-pyrido[3,4-b]indole] were, in that order, above 10000 nM and 20 to 50%.
As for `FC(F)(F)Cn1c2cnccc2c2cc(Cl)cc(-c3ccc(Cl)s3)c21` [Example 134, 6-Chloro-8-(5-chloro-thiophen-2-yl)-9-(2,2,2-trifluoro-ethyl)-9H-pyrido[3,4-b]indole], the EC50 was above 10000 nM and the Emax was below 20%.
The like results for `Cn1cc(-c2cc(Cl)cc3c4ccncc4n(CC(F)(F)F)c23)cn1` [Example 135, 6-Chloro-8-(1-methyl-1H-pyrazol-4-yl)-9-(2,2,2-trifluoro-ethyl)-9H-pyrido[3,4-b]indole] were, in that order, 330 nM and 50 to 80%.
For the molecule `FC(F)(F)Cn1c2cnccc2c2cc(Cl)cc(-c3cc(-c4ccccc4)no3)c21` [Example 136, 6-Chloro-8-(3-phenyl-isoxazol-5-yl)-9-(2,2,2-trifluoro-ethyl)-9H-pyrido[3,4-b]indole], the midpoint of the response, the EC50, lay at 4100 nM and the Emax was in the range of 50 to 80%.
With `CC(C)Cn1cc(-c2cc(Cl)cc3c4ccncc4n(CC(F)(F)F)c23)cn1` [Example 137, 6-Chloro-8-(1-isobutyl-1H-pyrazol-4-yl)-9-(2,2,2-trifluoro-ethyl)-9H-pyrido[3,4-b]indole], the EC50 was determined as 1400 nM and the Emax fell in the range of 20 to 50%.
